Patent US8785499B2 (priority 2009, dated 2014)

Legend:
baNadD = baNadD (Bacillus anthracis, UniProt C3L5T6); assay: biochemical; assay type: biochemical
ecNadD = ecNadD (Escherichia coli (strain K12), UniProt P0A752); assay: biochemical; assay type: biochemical

Sequence of baNadD (C3L5T6 whole entry, looked up): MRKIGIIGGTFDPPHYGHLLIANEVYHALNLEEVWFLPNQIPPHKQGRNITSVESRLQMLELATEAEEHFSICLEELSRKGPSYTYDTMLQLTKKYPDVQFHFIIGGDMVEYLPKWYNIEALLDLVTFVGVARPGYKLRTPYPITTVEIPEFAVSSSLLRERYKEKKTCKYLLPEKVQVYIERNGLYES

SMILES | […]. anthracis (baNadD) [%] | […]. coli (ecNadD) [%]
O=C(O)c1ccc(-n2ncc(Cl)c(Cl)c2=O)cc1 [compound 217] | 0 | 0
NS(=O)(=O)c1ccc(N/C=C2\C(=O)Oc3ccccc3C2=O)cc1 [compound 218] | 0 | 0
CCOC(=O)c1ccc(N/C=C2\C(=O)Oc3ccccc3C2=O)cc1 [compound 220] | 0 | 0
O=C(NCc1cccs1)C1CC(c2cccc(Br)c2)=NO1 (stereo not drawn) [compound 222] | 0 | 0
CC(C)COC1CS(=O)(=O)CC1OCC(C)C (stereo not drawn) [compound 223] | 20 | 0
CSc1ccccc1NC(=S)Nc1cccnc1 [compound 224] | 0 | 0
Brc1ccc2ncnc(NCc3cccnc3)c2c1 [compound 225] | 55 | 0
O=C(O)C1CCCN(S(=O)(=O)c2cccc([N+](=O)[O-])c2)C1 (stereo not drawn) [compound 227] | 0 | 0
O=C(CSc1ncnc2ccccc12)Nc1ccc2nsnc2c1 [compound 228] | 28 | 0
O=C(CSc1nc2ccccc2o1)Nc1nncs1 [compound 229] | 0 | 0
CC(=O)Nc1ccc(/N=C/c2ccc([N+](=O)[O-])cc2)cc1 [compound 230] | 0 | 0
Cc1ccc(SCc2cc(=O)n3ncnc3[nH]2)cc1 [compound 231] | 0 | 0
Nc1nc(-c2cccc(Br)c2)cs1 [compound 232] | 12 | 0
N#CCc1ccc(NC(=O)/C=C/c2ccc([N+](=O)[O-])o2)cc1 [compound 233] | 8 | 0
O=C(O)c1ccc(-c2ccccc2F)o1 [compound 234] | 0 | 0
O=C(O)c1ccc2[nH]c(CCc3nc4cc(C(=O)O)ccc4[nH]3)nc2c1 [compound 235] | 0 | 0
O=C(CSc1ccccc1)Nc1cc(C(=O)O)cc(C(=O)O)c1 [compound 236] | 0 | 0
Nc1nn(S(=O)(=O)c2ccccc2)cc1-c1ccc(Cl)cc1 [compound 237] | 0 | 0
O=C(O)CCC(=O)NCc1ccc(C(=O)O)cc1 [compound 238] | 14 | 0
O=C(O)CCC(=O)Nc1ccc(-c2nnc(-c3ccco3)o2)cc1 [compound 239] | 11 | 0
CC(=O)c1cccc(NS(=O)(=O)c2cccc(C(=O)O)c2)c1 [compound 240] | 0 | 0
O=[N+]([O-])c1cccc(S(=O)(=O)Nn2cnnc2)c1 [compound 241] | 59 | 0
CC(c1ccccc1)c1nnc(N)s1 (stereo not drawn) [compound 242] | 18 | 0
Cc1ccc(NS(=O)(=O)c2coc(C(N)=O)c2)cc1F [compound 243] | 0 | 0
CC(=O)NC(=S)Nc1ccc(Cl)c(Cl)c1 [compound 244] | 0 | 0
O=C(NCc1ccc(C(=O)O)cc1)Nc1ccc(Br)cc1Cl [compound 245] | 0 | 0
O=C(O)C(Cc1ccccc1)NS(=O)(=O)c1ccc2c(c1)OCCO2 (stereo not drawn) [compound 246] | 0 | 0
O=C(O)CCC(=O)OC/C=C/c1ccccc1 [compound 247] | 18 | 0
O=C(CSc1nc2ccccc2[nH]1)Nc1cccc(C(=O)O)c1 [compound 248] | 4 | 0
Cn1c(=O)n(C)c2cc(S(=O)(=O)NCCC(=O)O)ccc21 [compound 249] | 1 | 0
